The target of test [1] is T1, LYP (Homo sapiens, UniProt Q9Y2R2).
T1 sequence (Q9Y2R2 24-289 limits assumed): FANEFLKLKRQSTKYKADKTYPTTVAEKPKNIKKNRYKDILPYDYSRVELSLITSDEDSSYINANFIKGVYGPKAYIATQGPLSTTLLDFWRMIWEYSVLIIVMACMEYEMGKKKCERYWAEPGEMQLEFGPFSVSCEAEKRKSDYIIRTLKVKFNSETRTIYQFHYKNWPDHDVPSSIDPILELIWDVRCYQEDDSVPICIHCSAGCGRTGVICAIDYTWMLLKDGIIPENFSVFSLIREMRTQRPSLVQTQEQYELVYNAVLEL
The conditions noted are these: Spectrum collection screen, cited from earlier work.

For test [2], the target named is T1, LYP. Format: biochemical. The conditions noted are these: for kcat: pH 6.5.
Test [3] has as its target T1, LYP. The test can be described thus: LYP inhibition, follow-up of the 1536-well HTS, pCAP or OMFP substrate. Format: biochemical.

Like-named read-outs stand apart in the source and are kept apart here.

Turning to `Cc1ccc(C(=O)Nc2ccc(S(=O)(=O)O)c3cc(S(=O)(=O)O)cc(S(=O)(=O)O)c23)cc1NC(=O)c1cccc(NC(=O)Nc2cccc(C(=O)Nc3cc(C(=O)Nc4ccc(S(=O)(=O)O)c5cc(S(=O)(=O)O)cc(S(=O)(=O)O)c45)ccc3C)c2)c1` [suramin], the “inhibition of LYP activity, DiFMUP-based screen” value at LYP [1] (DiFMUP as substrate) is given as approximately 40%. For the same compound, the “inhibition of LYP activity, peptide-based screen” value on LYP [1] (peptide 2 as substrate) is given as “nearly all”.
For Ac-ARLIEDNE-pY-TAREG-NH2 [Peptide 2a], on LYP [2], the Km was 130 ± 20 µM, the kcat/Km is 52,000,000 M^−1s^−1 and the kcat stood at 6700 ± 400 s⁻¹.
On the same counts, the results for Ac-ARLIEDNE-pCAP-TAREG-NH2 [Peptide 2] are 200 ± 60 µM, 27,000,000 M^−1s^−1 and 5400 ± 1000 s⁻¹.
Consider `O=C(O)COc1ccc(/C=N/NC(=O)c2ccc(-c3csc(Nc4ccc(Cl)cc4)n3)cc2)cc1` [CID9595032], for which the IC50 turned out to be 1500 nM at LYP [3] (read-out: IC50, OMFP substrate, assayed using the OMFP substrate) and 530 nM at LYP [3] (read-out: IC50, pCAP substrate, assayed using the pCAP substrate).

A word on the Km: it is the concentration of substrate that gives half-maximal velocity. The term kcat denotes the maximal rate divided by the concentration of active sites. As usually defined, the IC50 is the concentration that inhibits the measured activity by half.

(Values after publication PMC3899110 (Methods (San Diego, Calif.), 2013).)
